Source: article PMC10809103, “Phosphatidylthreonine is a procoagulant lipid detected in human blood and elevated in coronary artery disease” (Journal of lipid research, 2023)

Assays:
Factor X (FX) = target: T1, Factor X (FX) (Homo sapiens, UniProt P00742); assay: surface plasmon resonance, lipid in nanodiscs, steady state; format: binding; conditions: read-out: Kd (μM) / 40% PS 60% PC
T1 construct: gene F10; zymogen factor X, two-chain; source and preparation only in supplement; with Coagulation factor X (factor X heavy chain)
T1 sequence (P00742 41-179): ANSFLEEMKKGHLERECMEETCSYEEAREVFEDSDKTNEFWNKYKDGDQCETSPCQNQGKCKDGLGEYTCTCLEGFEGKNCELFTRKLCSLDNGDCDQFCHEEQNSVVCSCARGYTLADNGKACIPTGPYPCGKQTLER
T1 sequence (P00742 183-488): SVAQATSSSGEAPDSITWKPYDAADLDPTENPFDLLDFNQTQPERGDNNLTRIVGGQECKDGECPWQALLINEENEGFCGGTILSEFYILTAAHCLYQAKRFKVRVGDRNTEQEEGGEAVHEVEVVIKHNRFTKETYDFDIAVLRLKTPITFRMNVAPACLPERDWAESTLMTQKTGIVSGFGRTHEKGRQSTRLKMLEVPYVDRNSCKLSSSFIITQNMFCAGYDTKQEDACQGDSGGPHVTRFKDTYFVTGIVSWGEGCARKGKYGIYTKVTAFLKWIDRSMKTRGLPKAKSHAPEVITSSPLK
Source text: surface plasmon resonance, lipid in nanodiscs, steady state on Factor X (FX)

Prothrombin (FII) = target: T2, Prothrombin (FII) (Homo sapiens, UniProt P00734); assay: as above; format: binding; conditions: read-out: Kd (μM) / 40% PS 60% PC
T2 construct: gene F2; zymogen prothrombin; source and preparation only in supplement
Source text: surface plasmon resonance, lipid in nanodiscs, steady state on Prothrombin (FII)

Kd (Factor X (FX)): 1.33 ± 0.191 µM | Kd (Prothrombin (FII)): 6.23 ± 0.921 µM
SMILES: CCCCCCCC/C=C\CCCCCCCC(=O)O[C@H](COC(=O)CCCCCCCCCCCCCCC)COP(=O)(O)OC[C@H](N)C(=O)O [PS 16:0/18:1(9Z)]
